Patent US20090181981A1, “CRYSTALLINE (R)-2-(4-CYCLOPROPANESULPHONYL-PHENYL)-N-PYRAZIN-2-YL-3-(TETRAHYDROPYRAN-4-YL)-PROPIONAMIDE” (priority 2008, published 2009)

Tests used:
[1] = test system: Glucokinase (GK); details: WO2004/072031; cited from earlier work
[2] = Hygroscopicity and storage at ambient temperature; format: physicochemical
Description: (§1) Glucokinase is important in regulation of plasma glucose levels. It is thought that GK activators increase a body's sensitivity to glucose. Consequently, GK activators are effective in the treatment of hyperglycemia, insulin resistance, and diabetes, particularly in type II diabetes. […] (WO2004/072031) However, amorphous CPTP is not suitable for pharmaceutically elegant drug formulation.
(§2) Crystalline CPTP has an onset of melting as measured by differential scanning calorimetry of 156° C., which renders it acceptable for standard industrial processes such as milling. […]

[3] = target: T1, Glucokinase (GK) (Homo sapiens, UniProt P35557); details: WO2004/072031; cited from earlier work
T1 sequence (P35557 1-465): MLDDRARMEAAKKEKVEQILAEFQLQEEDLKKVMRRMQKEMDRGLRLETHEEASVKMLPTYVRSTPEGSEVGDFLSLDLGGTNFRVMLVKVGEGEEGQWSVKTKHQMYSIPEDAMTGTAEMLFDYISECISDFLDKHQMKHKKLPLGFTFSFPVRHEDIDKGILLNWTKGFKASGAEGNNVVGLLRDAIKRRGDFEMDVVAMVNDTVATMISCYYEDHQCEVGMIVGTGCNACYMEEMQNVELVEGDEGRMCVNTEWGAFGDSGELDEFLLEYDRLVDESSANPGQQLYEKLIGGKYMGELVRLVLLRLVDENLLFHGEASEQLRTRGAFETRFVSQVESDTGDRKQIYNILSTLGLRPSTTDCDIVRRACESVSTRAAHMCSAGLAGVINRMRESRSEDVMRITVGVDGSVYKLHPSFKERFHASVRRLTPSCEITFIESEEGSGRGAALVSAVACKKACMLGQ

[4] = Glass transition temperature / thermal stability of the solid; format: physicochemical; details: as evidenced by low glass transition temperature
From the text: as §1

[5] = pKa by photometric titration; format: physicochemical; details: determined by photometric titration
From the text: Salt formation was also extensively investigated. However, formation of isolable CPTP salts is hampered by the low pK (pKa1=0.17, determined by photometric titration) of CPTP.

[6] = Crystalline CPTP stability summary (storage at controlled temperature and relative humidity); format: physicochemical; details: for Chiral Purity: chiral HPLC area percent; for Achiral Purity: total impurities by achiral HPLC
Description: as §2

[7] = 25° C. 60% relative humidity, 1 month
[8] = 25° C. 60% relative humidity, 3 months
[9] = 25° C. 60% relative humidity, Initial
[10] = 40° C. 60% relative humidity, 1 Month
[11] = 40° C. 60% relative humidity, 3 Months
[12] = 40° C. 60% relative humidity, Initial

In the case of `O=C(Nc1cnccn1)[C@H](CC1CCOCC1)c1ccc(S(=O)(=O)C2CC2)cc1` [Amorphous CPTP, R-2-(4-cyclopropanesulfonyl-phenyl)-N-pyrazin-2-yl-3-(tetrahydropyran-4-yl)-propionamide], the “activity in in-vivo GK assay” value [1] is given as “active”, the hygroscopicity [2] is given as “is hygroscopic” and the “activity in in-vitro GK assay” value [3] is given as “active”. For the same compound, the thermal stability [4] was “limited thermal stability”.

With `O=C(Nc1cnccn1)[C@H](CC1CCOCC1)c1ccc(S(=O)(=O)C2CC2)cc1` [CPTP, R-2-(4-cyclopropanesulfonyl-phenyl)-N-pyrazin-2-yl-3-(tetrahydropyran-4-yl)-propionamide] the pKa1 [5] was 0.17.

With `O=C(Nc1cnccn1)[C@H](CC1CCOCC1)c1ccc(S(=O)(=O)C2CC2)cc1` [Crystalline CPTP, R-2-(4-cyclopropanesulphonyl-phenyl)-N-pyrazin-2-yl-3-(tetrahydropyran-4-yl)-propionamide] the degradation on storage ([2]; stored at ambient temperature) was “minor or no degradation”, the “hygroscopicity / water uptake” value ([2]; stored at ambient temperature) was “remains anhydrous and is not hygroscopic” and the Appearance [6, 7] was “White”. For the same compound, the Assay [6, 7] was 99.9 % w/w, the Total Impurities [6, 7] was 0.18% and the Water [6, 7] was under 0.10 % w/w. For the same compound, the Appearance [6, 8] was “White”, the Assay [6, 8] was 99.6 % w/w and the Total Impurities [6, 8] was 0.23%. The Water [6, 8] was under 0.01 % w/w, the Appearance [6, 9] was “White” and the Assay [6, 9] was 100.3 % w/w. The Total Impurities [6, 9] was 0.25%, the Water [6, 9] was under 0.07 % w/w and the Appearance [6, 10] was “White”. It also gave an Assay [6, 10] of 100.1 % w/w, a Total Impurities [6, 10] of 0.2% and a Water [6, 10] of under 0.10 % w/w. For the same compound, the Appearance [6, 11] was “White”, the Assay [6, 11] was 99.3 % w/w and the Total Impurities [6, 11] was 0.25%. For the same compound, the Water [6, 11] was under 0.01 % w/w, the Appearance [6, 12] was “White” and the Assay [6, 12] was 100.3 % w/w. The Total Impurities [6, 12] was 0.25%, the Water [6, 12] was under 0.07 % w/w and the “Chiral Purity” value [6, 7] was 100 % a/a. For the same compound, the “Chiral Purity” value [6, 8] was 100 % a/a, the “Chiral Purity” value [6, 9] was 100 % a/a and the “Chiral Purity” value [6, 10] was 100 % a/a. The “Chiral Purity” value [6, 11] was 100 % a/a, the “Chiral Purity” value [6, 12] was 100 % a/a and the “Achiral Purity” value [6, 7] was 0.18 % a/a. The “Achiral Purity” value [6, 8] was 0.23 % a/a, the “Achiral Purity” value [6, 9] was 0.25 % a/a and the “Achiral Purity” value [6, 10] was 0.20 % a/a. The “Achiral Purity” value [6, 11] was 0.25 % a/a and the “Achiral Purity” value [6, 12] was 0.25 % a/a.
